# Test system: SEM cells
# Experiment: cell viability relative to DMSO control; higher = less cytotoxic
# Conditions: 48 h
# Summary of the method: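 Leukemia cells (NOMO1 or SEM, 500 cells/well; P12-Ichikawa, 1000 cells/well) were seeded in 5 μl in 1536-well plates after at least four passages of adaptation to each medium. They received library compounds in DMSO by pin dosing, 11 threefold points from 47 μM to 0.79 nM. Luminescence with CellTiter-Glo One was read after 48 h at 37°C. Viability is stated per plate relative to DMSO wells, with cell-free wells as background.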
# [1] = HPLM + 10% dialyzed FBS, 0.000781 µM
# [2] = HPLM + 10% dialyzed FBS, 0.00234 µM
# [3] = HPLM + 10% dialyzed FBS, 0.00702 µM
# [4] = HPLM + 10% dialyzed FBS, 0.0211 µM
# [5] = HPLM + 10% dialyzed FBS, 0.0632 µM
# [6] = HPLM + 10% dialyzed FBS, 0.19 µM
# [7] = HPLM + 10% dialyzed FBS, 0.569 µM
# [8] = HPLM + 10% dialyzed FBS, 1.71 µM
# [9] = HPLM + 10% dialyzed FBS, 5.12 µM
# [10] = HPLM + 10% dialyzed FBS, 15.4 µM
# [11] = HPLM + 10% dialyzed FBS, 46.1 µM
# [12] = RPMI 5 mM glucose + 10% FBS, 0.000781 µM
# [13] = RPMI 5 mM glucose + 10% FBS, 0.00234 µM
# [14] = RPMI 5 mM glucose + 10% FBS, 0.00702 µM
# [15] = RPMI 5 mM glucose + 10% FBS, 0.0211 µM
# [16] = RPMI 5 mM glucose + 10% FBS, 0.0632 µM
# [17] = RPMI 5 mM glucose + 10% FBS, 0.19 µM
# [18] = RPMI 5 mM glucose + 10% FBS, 0.569 µM
# [19] = RPMI 5 mM glucose + 10% FBS, 1.71 µM
# [20] = RPMI 5 mM glucose + 10% FBS, 5.12 µM
# [21] = RPMI 5 mM glucose + 10% FBS, 15.4 µM
# [22] = RPMI 5 mM glucose + 10% FBS, 46.1 µM
# [23] = RPMI 5 mM glucose + 10% dialyzed FBS, 0.000781 µM
# [24] = RPMI 5 mM glucose + 10% dialyzed FBS, 0.00234 µM
# [25] = RPMI 5 mM glucose + 10% dialyzed FBS, 0.00702 µM
# [26] = RPMI 5 mM glucose + 10% dialyzed FBS, 0.0211 µM
# [27] = RPMI 5 mM glucose + 10% dialyzed FBS, 0.0632 µM
# [28] = RPMI 5 mM glucose + 10% dialyzed FBS, 0.19 µM
# [29] = RPMI 5 mM glucose + 10% dialyzed FBS, 0.569 µM
# [30] = RPMI 5 mM glucose + 10% dialyzed FBS, 1.71 µM
# [31] = RPMI 5 mM glucose + 10% dialyzed FBS, 5.12 µM
# [32] = RPMI 5 mM glucose + 10% dialyzed FBS, 15.4 µM
# [33] = RPMI 5 mM glucose + 10% dialyzed FBS, 46.1 µM
SMILES,cell viability [1],cell viability [2],cell viability [3],cell viability [4],cell viability [5],cell viability [6],cell viability [7],cell viability [8],cell viability [9],cell viability [10],cell viability [11],cell viability [12],cell viability [13],cell viability [14],cell viability [15],cell viability [16],cell viability [17],cell viability [18],cell viability [19],cell viability [20],cell viability [21],cell viability [22],cell viability [23],cell viability [24],cell viability [25],cell viability [26],cell viability [27],cell viability [28],cell viability [29],cell viability [30],cell viability [31],cell viability [32],cell viability [33]
N#Cc1c(C2CCNCC2)cc(-c2c(O)cccc2OCC2CC2)nc1N,108%,106%,107%,109%,114%,115%,108%,108%,100%,77.4%,34.2%,103%,107%,106%,115%,121%,110%,97.3%,118%,102%,82.8%,29%,98.7%,108%,104%,104%,106%,108%,101%,98.1%,85.3%,72.6%,43.7%
CC(C)[C@H](CO)Nc1nc(Nc2ccc(C(=O)O)c(Cl)c2)c2ncn(C(C)C)c2n1,113%,104%,103%,112%,126%,115%,97.6%,73.6%,99.2%,92.2%,54.2%,89.7%,128%,114%,95.2%,106%,102%,86.6%,83.2%,75.5%,91.7%,45%,102%,120%,97.3%,107%,116%,107%,114%,79.1%,109%,95.5%,57.8%
CNC(=O)c1cc(Oc2ccc(NC(=O)Nc3cc(C(C)(C)C)nn3-c3ccc4ncccc4c3)c(F)c2)ccn1,98.3%,113%,118%,113%,116%,102%,80.5%,66.6%,61.7%,52.2%,41.6%,108%,114%,107%,115%,122%,99.2%,85.3%,61.3%,50.5%,39.2%,26.2%,,,,,,,,,,,
COC(=O)N[C@H](C(=O)N[C@@H](Cc1ccccc1)[C@@H](O)CN(Cc1ccc(-c2ccccn2)cc1)NC(=O)[C@@H](NC(=O)OC)C(C)(C)C)C(C)(C)C,,,,,,,,,,,,103%,123%,152%,111%,136%,110%,122%,110%,128%,116%,96.7%,101%,118%,136%,123%,132%,131%,110%,113%,122%,123%,79.9%
COc1ccc2cc(-c3[nH]c(-c4ccc([S+](C)[O-])cc4)nc3-c3ccncc3)ccc2c1 (configuration not stated),92.4%,104%,105%,109%,109%,114%,121%,107%,126%,127%,107%,76.8%,105%,96.3%,85.9%,95%,101%,101%,106%,110%,111%,71.9%,88.6%,109%,102%,105%,101%,116%,127%,109%,111%,116%,88.9%
CCc1cc(/C(C)=N/OCc2ccc(C3CCCCC3)c(C(F)(F)F)c2)ccc1CN1CC(C(=O)O)C1,104%,117%,112%,109%,104%,115%,120%,117%,99.8%,87.1%,82.9%,92%,108%,109%,109%,105%,109%,106%,99.9%,96.2%,82.2%,70.2%,114%,116%,125%,123%,126%,124%,137%,132%,118%,106%,94%
CCN(CC)CCOC1=CC=C(NC2=NC=C3\C=C(/C(=O)N(C)C3=N2)C4=C(Cl)C=CC=C4Cl)C=C1,94.9%,101%,105%,74.5%,67.9%,58.4%,56.8%,56%,10.9%,6.61%,4.15%,78.3%,67.6%,74.7%,52.1%,48.6%,44.8%,38.2%,45.8%,11.7%,7.2%,2.88%,92.5%,102%,106%,68.3%,76.1%,69.1%,61.1%,59.8%,13.5%,8.59%,3.75%
CCCn1c(=O)c2[nH]c(C34CC5CC3C[C@@H](C5)C4)nc2n(CCC)c1=O,102%,84.8%,103%,109%,110%,122%,115%,103%,97.9%,95.5%,97.8%,50.7%,44.7%,84.2%,94.6%,107%,101%,94.1%,97.2%,94.8%,91.1%,84.4%,91.6%,73.2%,116%,130%,117%,110%,118%,109%,101%,91.5%,111%
